Results on five compounds are retold here after US12226410B2, “Methods for enhancing cellular clearance of pathological molecules via activation of the cellular protein ykt6” (NORTHWESTERN UNIVERSITY, priority 2019, dated 2025).

Entries after “also recorded” stand apart in the source; their conditions may differ.

Assay [1] concerns ykt6 SNARE complexes. Briefly: Co-IP of GFP-ykt6 SNARE complexes under lysosomal stress. Type of assay: cell-based, human. On the procedure:
FIGS. 3A, 3B, 3C, 3D, 3E, 3F, 3G, 3H, 3I, 3J, and 3K. Ykt6 is activated in response to lysosomal stress. 3A) Ykt6 membrane shift analysis in bafA1 (200 nM, 2 hrs) or NH4Cl (1M, 12 hrs) treated iPSn (d60). CBB, coomassie brilliant blue, (BafA1 and NH4Cl are indicated, n=7-10). 3B) Co-IP of GFP-ykt6 and bet1 in control iPSn (d60) treated with bafA1 (n=3). 3C) Ykt6 and GM130 immunofluorescence analysis of bafA1-treated H4 cells (n=9). Scale bars=10 um. 3D) Ykt6 membrane shift analysis in CBE-treated SH-SY5Y cells (50 μM, 2d, n=3). 3E) Co-IP of GFP-ykt6, bet1 and STX5 in CBE-treated SHSY5Y cells (n=5). 3F) Ykt6 membrane shift analysis in control or Gaucher disease (GD) iPSn (d100). a-Syn was knocked-out (SNCA KO) in GD lines by CRISPR/Cas9. Two exposures are included to better visualize cyt and mem ykt6 (n=4). 3G) Ykt6 membrane shift analysis in lenti-infected SH-SY5Y cells (moi3, dpi 10) (n=3). C, cytosolic; N, nuclear. 3H) GCase maturation was assessed by endo H digest in lenti-infected SH-SY5Y cells. […] 3I) Control iPSn were infected as in 3H and analyzed for GCase maturation (n=3). […]
To co-IP ykt6 SNARE assemblies, approximately 106-107 cells expressing GFP-tagged YKT6, were harvested in 1 ml of PBS, scraped off the plate and transferred to centrifuge tubes. […] Eluates were analyzed by western blot as described below. The samples were not analyzed in a blinded manner.

The test system of assay [2] is ykt6. Put plainly: Ykt6 membrane shift analysis under lysosomal stress. Type of assay: cell-based, human. As to the method:
FIGS. 3A, 3B, 3C, 3D, 3E, 3F, 3G, 3H, 3I, 3J, and 3K. Ykt6 is activated in response to lysosomal stress. 3A) Ykt6 membrane shift analysis in bafA1 (200 nM, 2 hrs) or NH4Cl (1M, 12 hrs) treated iPSn (d60). CBB, coomassie brilliant blue, (BafA1 and NH4Cl are indicated, n=7-10). 3B) Co-IP of GFP-ykt6 and bet1 in control iPSn (d60) treated with bafA1 (n=3). 3C) Ykt6 and GM130 immunofluorescence analysis of bafA1-treated H4 cells (n=9). Scale bars=10 um. 3D) Ykt6 membrane shift analysis in CBE-treated SH-SY5Y cells (50 μM, 2d, n=3). 3E) Co-IP of GFP-ykt6, bet1 and STX5 in CBE-treated SHSY5Y cells (n=5). 3F) Ykt6 membrane shift analysis in control or Gaucher disease (GD) iPSn (d100). a-Syn was knocked-out (SNCA KO) in GD lines by CRISPR/Cas9. Two exposures are included to better visualize cyt and mem ykt6 (n=4). 3G) Ykt6 membrane shift analysis in lenti-infected SH-SY5Y cells (moi3, dpi 10) (n=3). C, cytosolic; N, nuclear. 3H) GCase maturation was assessed by endo H digest in lenti-infected SH-SY5Y cells. Empty vector (vect), scrambled (scrb). 3I) Control iPSn were infected as in 3H and analyzed for GCase maturation (n=3). 3J) Live cell GCase activity in lenti-infected iPSn (n=4). 3K) Lysosomal mass measurement in control iPSn (n=4). Values are the mean+/−SEM, *p<0.05.
FIGS. 12A, 12B, 12C, 12D, 12E, and 12F. The effects of ykt6 knock-down on the lysosomal system and characterization of GD-SNCA KO iPSCs. […] 12B) Protein secretion was measured by radioactive pulse-chase from the same culture wells that correspond to proteolysis data of FIG. 2H. 12C) Control iPSn were treated with 50 mM sucrose for 7 days followed by membrane shift analysis of ykt6. 12D) Control iPSn were infected with scrambled (S) or ykt6 shRNA (KD) and treated with or without sucrose as done in panel B. LAMP1 levels were analyzed by western blot. GAPDH is a loading control (n=4). 12E) Cultures were treated as described in panel C, and analyzed for GCase maturation by western blot analysis (n=4). For all quantifications, values are the mean+/−SEM, *p<0.05. 12F) Analysis of off-target edits by CRISPR/Cas9 in SNCA knock out (KO) Gaucher disease iPSCs. The targeting strategy has been previously published (Zunke et al., 2018). Genomic sequences showing the closest homology to SNCA were analyzed for mis-matched mutations by T7 digestion, and compared to the parental GD line. PCR amplicons were analyzed by agarose gel electrophoresis stained with ethidium bromide. For all quantifications, values are the mean+/−SEM, *p<0.05. Student's T-test was used in panel 12A, while ANOVA with Tukey's post-hoc test was used in panels 12D and 12E.
Separation of lysates into cytosol and membrane fractions. […]

For assay [3], the target named is T1, ykt6 SNARE binding (STX5) (Homo sapiens, UniProt O15498).
T1 construct: expressed in transfected cells
T1 sequence (O15498 1-195 limits assumed): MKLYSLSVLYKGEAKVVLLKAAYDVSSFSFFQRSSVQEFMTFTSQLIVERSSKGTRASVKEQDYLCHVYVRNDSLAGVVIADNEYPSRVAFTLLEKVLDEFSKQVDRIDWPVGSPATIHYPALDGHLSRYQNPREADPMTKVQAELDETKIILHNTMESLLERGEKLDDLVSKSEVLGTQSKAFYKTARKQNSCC
Briefly: Co-IP of GFP-ykt6 and STX5 in Hela cells. Type of assay: cell-based. The conditions noted are these: Hela cells stably expressing GFP-ykt6; 2 days.

In assay [4] the target is T2, ykt6 (Homo sapiens, UniProt O15498).
T2 construct: expressed in transfected cells
T2 sequence (O15498 1-198): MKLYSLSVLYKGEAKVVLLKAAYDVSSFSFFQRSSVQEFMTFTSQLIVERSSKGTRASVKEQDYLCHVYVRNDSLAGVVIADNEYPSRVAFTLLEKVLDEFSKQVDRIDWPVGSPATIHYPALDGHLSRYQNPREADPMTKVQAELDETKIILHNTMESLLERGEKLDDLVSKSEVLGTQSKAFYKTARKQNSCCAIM
Briefly: GFP-ykt6 / GM130 colocalization in Hela cells. It is filed as cell-based. Conditions: Hela cells stably expressing GFP-ykt6; 2 days, various concentrations. As to the method: FIG. 19. […] A) Hela cells stably expressing GFP-ykt6 (green) were treated with #20 for 2 days at various concentrations, fixed, stained with Golgi marker GM130 (red), and colocalization was quantified by Pearson's correlation. Each plot represents an individual cell, from 3 culture wells. LNK-754 was used at 10 nM. B) Stable transfected Hela cells were incubated as in A followed by biochemical fractionation/western blot to detect cytosolic (cyt) or membrane (mem) ykt6. The assay was repeated 3 times, representative blot shown.
We tested the activity of Compound #20 ((3R)-1-[(1-{[1-(4,5-dimethylthiophene-2-carbonyl)piperidin-4-yl]methyl}-1H-1,2,3-triazol-4-yl)methyl]pyrrolidin-3-amine) regarding activation of ykt6 in Hela cells. (See FIG. 19). Hela cells stably expressing GFP-ykt6 were treated with Compound #20 for 2 days at various concentrations, fixed, stained with Golgi marker GM130, and colocalization was quantified by Pearson's correlation.

Consider `O[C@H]1[C@H](O)[C@@H](O)[C@@H]2O[C@@H]2[C@@H]1O` [CBE], for which, in assay [1] (SHSY5Y cells), the “ykt6 SNARE complexes (co-IP GFP-ykt6, bet1 and STX5)” value is recorded as “increased ykt6 SNARE complexes”. Besides, the ykt6 cytosol/membrane distribution entry in assay [2] (SH-SY5Y cells, 50 μM, 2d) was “caused ykt6 to shift into membranes”.

`Cc1cc(C(=O)N2CCC(Cn3cc(CN4CC[C@@H](N)C4)nn3)CC2)sc1C` [Compound #20, (3R)-1-[(1-{[1-(4,5-dimethylthiophene-2-carbonyl)piperidin-4-yl]methyl}-1H-1,2,3-triazol-4-yl)methyl]pyrrolidin-3-amine]: the “SNARE binding (STX5 co-IP)” value in assay [3] is recorded as “increases SNARE binding”. Besides, the “ykt6 activity (GFP-ykt6 colocalization with GM130, Pearson's correlation)” value in assay [4] is recorded as “can activate ykt6; also recorded: increases ykt6 activity”.

Turning to `Cl.N` [NH4Cl], the ykt6 cytosol/membrane distribution entry in assay [2] (healthy control iPSn (d60), 1M, 12 hrs) was “caused a shift of ykt6 from the cytosol into membrane fractions”.

Consider `CO/C1=C\C(C)=C\[C@@H](C)[C@@H](O)[C@@H](C)C/C(C)=C/C=C/[C@H](OC)[C@@H]([C@@H](C)[C@@H](O)[C@H](C)[C@@]2(O)C[C@@H](O)[C@H](C)[C@@H](C(C)C)O2)OC1=O` [bafilomycin A1], for which, in assay [1] (control iPSn (d60)), the “assembly of ykt6 ER-Golgi SNARE complexes (co-IP GFP-ykt6 and bet1)” value is listed as “promoted the assembly of ykt6 ER-Golgi SNARE complexes”. For the same compound, the ykt6 cytosol/membrane distribution entry in assay [2] (healthy control iPSn (d60), 200 nM, 2 hrs) was “caused a shift of ykt6 from the cytosol into membrane fractions”.

As for `OC[C@H]1O[C@@](CO)(O[C@H]2O[C@H](CO)[C@@H](O)[C@H](O)[C@H]2O)[C@@H](O)[C@@H]1O` [sucrose], the ykt6 cytosol/membrane distribution result in assay [2] (control iPSn, 50 mM, 7 days) was “caused ykt6 to shift into membranes”.
